Results published in US8278296B2, “Manipulation of brain CDP-diacylglycerol and uses thereof” (priority 2006, dated 2012).
“Also recorded” adds a separate entry of the source.

Assays:
[1] = test system: CDP-diacylglycerol/inositol phosphate; assay: CDP-DG/IP ratio calculated from brain slice data; assay type: cell-based, rat
Protocol: FIGS. 9A-9C are ratios of antidepressant-induced CDP-diacylglycerol versus inositol phosphates. The data in FIGS. 1A-1C, 2A-2B, 3A-3C, 4A-4B, and 5A-5C were recalculated by dividing the CDP-diacylglycerol effects of each concentration of each antidepressant agent by the corresponding effects of the agent on inositol phosphate accumulation to yield the CDP-diacylglycerol/inositol phosphate (CDP-DG/IP) ratios shown. […] Data for each agent were analyzed by One-Way ANOVA followed by posthoc Dunnett tests. ^#p<0.05; *p<0.01; compared to the respective control (zero drug concentration).
As used herein, the term “CDP-DG/IP ratio” refers to the relative value of an index which is the quotient of a level of cellular CDP-diacylglycerol divided by a level of inositol phosphate in a tissue or cell or tissue cultures thereof, e.g., a mammalian brain tissue or blood platelets, a human brain tissue or blood platelets, or other cells or tissues having the ability to metabolize CDP-diacylglycerol and phosphoinositides. Levels may be determined, but are not limited to, using molar concentration or a radiolabel.
To determine if antidepressant agents exert differential effects on CDP-DG production compared to PI hydrolysis, the ratios of CDP-DG production relative to the IPs (CDP-DG/IP ratio) in corresponding treatment conditions were examined.
Corresponding CDP-DG ratios were calculated as for the antidepressant agents. […] The ratios of CDP-DG production relative to IP accumulation are shown on the far right of the graphs in FIGS. 10A-10C and FIGS. 11A-11D.

CDP-diacylglycerol = assay: [3H]CDP-diacylglycerol accumulation in rat brain slices; assay type: cell-based; conditions: for effect on CDP-DG production: monoamine receptor agonists, frontal cortex or hippocampal tissues, 5 mM LiCl; for effect on CDP-DG production / effect on [3H]CDP-diacylglycerol accumulation: 90 min; for effect on CDP-DG accumulation: MAOIs; for effect on CDP-diacylglycerol accumulation: rat cerebrocortical slices, 0.1-300 μM, other psychotropic compounds; for effect on [3H]CDP-diacylglycerol accumulation: rat hippocampal, prefrontal cortical and striatal slices, LiCl present
rats = assay: Forced swim test; assay type: in vivo, rat; conditions: for effect on immobility times in forced swim test: modified regimen, i.p. at 3 h and 1 h before testing; for effect of neomycin pretreatment on immobility-reducing effects of antidepressant drugs: imipramine, fluoxetine, maprotiline
Protocol: One group of rats was acclimated once in the swim chamber and subgroups of three animals each were administered indicated doses (corresponding to 0, 3, 10, and 30 mg/kg) of imipramine at 24, 3, and 1 h before behavioral testing (conventional regimen). The other group of rats from the same batch was acclimated twice at 48 and 24 h before the time of testing and subgroups were administered the same doses of imipramine at 3 and 1 h before behavioral testing. Animals in each group were then tested in the forced swim apparatus for 5 min and the immobility times determined. […] Each bar is the mean±SEM (n=6). […] Animals were prepared as in FIG. 14 for the modified regimen. […] Test drugs were administered at indicated doses 3 and 1 h before behavioral testing. […] Immobility response data for set one were analyzed by one-way ANOVA (response by dose) in order to determine if the drug by itself produced significant effects. Data for set two were analyzed by one-way ANOVA (response by group, where group comprised control, neomycin, drug, neomycin+drug), followed by posthoc Tukey tests. […] The forced swim test (FST) was applied with some modifications. Rats were transferred to the testing room between 9:00-10:00 AM and allowed at least an hour before being placed individually into translucent polypropylene cylinders (46 cm tall×25 cm in diameter) containing 27 cm depth of water maintained at 25° C. […] After 15 min in the water, the rats were removed, toweled, and allowed to dry in a warm environment before being returned to their home cage. This acclimation step was repeated after 24 h, with the exposure time reduced from 15 to 5 min. […] During the second acclimation exposure, the duration of immobility was recorded for each animal. […] To adjudge that a rat had become immobile, the animal had to float passively in the water in a slightly hunched, but upright position, making only minimal movements necessary to keep its head above the water (65-66). On the third day when animals were to undergo experimental assessment, saline or the indicated antidepressant agents were administered i.p. at 3 h and at 1 h before behavioral testing. The drugs were dissolved in distilled-deionized water and diluted in saline. Control subjects received 0.9% saline. […] Data were analyzed by one-way analysis of variance (ANOVA).

phosphatidylinositides = assay: [3H]inositol phospholipid (phosphatidylinositide) resynthesis in rat brain slices; assay type: cell-based; conditions: for effect on PI synthesis: monoamine receptor agonists, frontal cortex or hippocampal tissues, 5 mM LiCl; for effect on PI synthesis / effect on [3H]inositol labeling of PIs (phosphatidylinositide synthesis): 90 min; for effect on [3H]inositol labeling of PIs (phosphatidylinositide synthesis): hippocampus, frontal cortex, striatum slices
inositol phosphates = assay: [3H]inositol phosphate accumulation in rat brain slices; assay type: cell-based; conditions: for effect on IP accumulation: monoamine receptor agonists, frontal cortex or hippocampal tissues, 5 mM LiCl, 90 min; for effect on accumulation of IPs: 3-300 μM, hippocampus, frontal cortex, striatum slices
5HT2 receptor [2] = test system: 5HT2 receptor
Protocol: Hippocampal slices were incubated with either [^3H]inositol (FIGS. 13A-13B) or [^3H]cytidine (FIG. 13C) for 30 min, followed by addition of indicated concentrations of LY53857 (6-methyl-1-(1-methylethyl)-ergoline-8β-carboxylic acid 2-hydroxy-1-methylpropyl ester maleate). […] After 60 min, tritiated inositol phosphate, inositol phospholipids, or CDP-diacylglycerol were assayed. Each bar is the mean±SEM (n=6). Data for each analyte were normalized across experiments and test drugs and then were analyzed for each drug by One-Way ANOVA of responses measured at the four concentration conditions of LY53857 (0, 0.1, 1, 10 μM). The ANOVAs were followed with Dunnett tests comparing the response in the presence of each concentration of LY53857 to the control effect of the antidepressant alone.
To examine the extent to which the enhancing effects of antidepressant agents on inositol phosphate accumulation were dependent on postsynaptic 5HT2 receptor stimulation, each antidepressant was challenged with a range of concentrations of the 5HT2 receptor-selective antagonist, LY53857 (71-72). The antagonist was added after the prelabeling phase, but 15 min prior to the addition of α-methylserotonin to the incubating slices.

[3] = test system: phosphoinositide-specific phospholipase C / PI metabolism; assay: Blockade of PI hydrolysis (neomycin, U73122) on antidepressant-induced CDP-DG, PI and IP responses in brain slices; assay type: cell-based, rat; conditions: for sensitivity of drug effects to inhibition by U73122: compared with tricyclic agents
5HT2 receptor [4] = assay: α-methylserotonin-stimulated IP accumulation in tissues prelabeled with [3H]inositol in presence of antidepressants; assay type: cell-based, rat
[5] = monoamine receptor agonists, frontal cortex or hippocampal tissues
[6] = hippocampal slices, 0.1, 1, 10 μM

Compound: Oc1cc2c(cc1O)C(c1ccccc1)CNCC2 (racemic) [SKF38393, (+/−)-1-phenyl-2,3,4,5-tetrahydro-(1H)-3-benzazepine-7,8-diol]
- CDP-DG/IP ratio [1, 5]: increased CDP-DG/IP ratios significantly
- ratio of CDP-DG relative to PIs (CDP-DG/PI ratio) ([1]; prefrontal cortical slices): significantly enhanced
- ratio of CDP-DG relative to both inositol derivatives (CDP-DG/IP&PI) ([1]; prefrontal cortical slices): significantly enhanced
- effect on CDP-DG production (CDP-diacylglycerol): significantly increased
- effect on immobility times in forced swim test (rats): significantly decreased immobility times
- effect on PI synthesis (phosphatidylinositides): significantly enhanced
- effect on IP accumulation (inositol phosphates): significantly increased

Compound: N[C@@H]1C[C@H]1c1ccccc1 (racemic) [tranylcypromine]
- effect on CDP-DG accumulation (CDP-diacylglycerol; frontal cortex slices): statistically significant but modest effects

Compound: CC(O)C(C)OC(=O)[C@@H]1C[C@@H]2c3cccc4c3c(cn4C(C)C)C[C@H]2N(C)C1.O=C(O)/C=C\C(=O)O (stereo partly drawn) [LY53857, 6-methyl-1-(1-methylethyl)-ergoline-8β-carboxylic acid 2-hydroxy-1-methylpropyl ester maleate]
- increase of basal CDP-diacylglycerol (5HT2 receptor [2]; 0.1 μM, hippocampal slices): 20%
- inhibition of IP responses to antidepressant agents (5HT2 receptor [2]; hippocampal slices, 300 μM imipramine, desipramine, paroxetine, maprotiline or 100 μM fluoxetine): completely blocked
- effect on basal levels of IPs (5HT2 receptor [2]; [6]): did not significantly alter
- effect on basal levels of PIs (5HT2 receptor [2]; [6]): did not significantly alter
- inhibition of antidepressant-induced CDP-diacylglycerol responses (5HT2 receptor [2]; hippocampal slices, all drugs): statistically significantly inhibited
- inhibition of antidepressant-induced PI labeling (5HT2 receptor [2]; hippocampal slices, all drugs): statistically significantly inhibited

Compound: [Cl-].[Li+] [LiCl, lithium chloride]
- effect on antidepressant drug-induced [3H]CDP-diacylglycerol production (CDP-diacylglycerol; 5 mM LiCl present or absent, fluoxetine or imipramine, frontal cortex or hippocampus, 60 min): did not significantly enhance or inhibit; also recorded: did not significantly alter

Compound: COc1ccc2c(c1)CC[C@@H]1[C@@H]2CC[C@]2(C)[C@@H](NCCCCCCN3C(=O)C=CC3=O)CC[C@@H]12 [U73122]
- inhibition of antidepressant-stimulated IP accumulation ([3]; 100 μM fluoxetine or 300 μM imipramine, paroxetine, maprotiline, nomifensine, hippocampal or cortical slices): completely blocked
- inhibition of antidepressant drug effects on CDP-DG production ([3]; 0.1 to 10 μM U73122, cortical or hippocampal slices): significantly reduced, but was unable to completely block; also recorded: only partially reduced
- effect of inhibitor by itself on basal CDP-DG production ([3]; U73122 alone): did not significantly alter; also recorded: no significant effect
- effect of inhibitor by itself on basal IP accumulation ([3]; U73122 alone): did not significantly alter; also recorded: no significant effect
- inhibition of SKF38393-induced IP accumulation ([3]; brain slices): blocked

Compound: COc1ccc2c(c1)CC[C@@H]1[C@@H]2CC[C@]2(C)[C@@H](NCCCCCCN3C(=O)CCC3=O)CC[C@@H]12 [U73123]
- effect on CDP-DG or IP responses ([3]; inactive analog control, data not shown): without effect

Compound: CN1[C@@H]2CC[C@H]1C[C@@H](OC(c1ccccc1)c1ccccc1)C2 [benztropine]
- effect on CDP-diacylglycerol accumulation (CDP-diacylglycerol): No significant effects or concentration-related effects

Compound: C[N+](C)(C)CCOC(N)=O [carbachol]
- CDP-DG/IP ratio [1, 5]: dramatic decrease
- effect on CDP-DG production (CDP-diacylglycerol): significantly increased
- effect on PI synthesis (phosphatidylinositides): failed to increase
- effect on IP accumulation (inositol phosphates): significantly increased

Compound: CN(C)CCCN1c2ccccc2Sc2ccc(Cl)cc21 [chloropromazine]
- effect on CDP-diacylglycerol accumulation (CDP-diacylglycerol): No significant effects or concentration-related effects

Compound: CN1C(=O)CN=C(c2ccccc2)c2cc(Cl)ccc21 [diazepam]
- effect on CDP-diacylglycerol accumulation (CDP-diacylglycerol): No significant effects or concentration-related effects

Compound: CNCCC(Oc1ccc(C(F)(F)F)cc1)c1ccccc1 (stereo not drawn) [fluoxetine]
- sensitivity of drug effects to inhibition by U73122 [3]: more sensitive
- effect on [3H]CDP-diacylglycerol accumulation (CDP-diacylglycerol): significantly and dose-dependently enhanced
- effect on immobility times in forced swim test (rats): significant and dose-dependent reductions
- effect on [3H]inositol labeling of PIs (phosphatidylinositide synthesis) (phosphatidylinositides): significantly increased
- effect on accumulation of IPs (inositol phosphates): significantly and dose-dependently stimulated

Compound: OCCN1CCN(CC/C=C2/c3ccccc3Sc3ccc(C(F)(F)F)cc32)CC1 [flupenthioxol]
- effect on CDP-diacylglycerol accumulation (CDP-diacylglycerol): No significant effects or concentration-related effects

Compound: O=C(CCCN1CCC(O)(c2ccc(Cl)cc2)CC1)c1ccc(F)cc1 [haloperidol]
- effect on CDP-diacylglycerol accumulation (CDP-diacylglycerol): No significant effects or concentration-related effects

Compound: NO [hydroxylamine]
- effect on CDP-diacylglycerol accumulation (CDP-diacylglycerol): No significant effects or concentration-related effects

Compound: CN(C)CCCN1c2ccccc2CCc2ccccc21 [imipramine]
- effect on [3H]CDP-diacylglycerol accumulation (CDP-diacylglycerol): significantly and dose-dependently enhanced
- lowest concentration with statistically significant CDP-diacylglycerol response (CDP-diacylglycerol; striatum slices, posthoc Dunnett test): 30 µM
- effect on immobility behavior in forced swim test (rats; conventional and modified regimens, 0, 3, 10, 30 mg/kg): significant dose-related effects; also recorded: significant and dose-related
- effect on immobility times in forced swim test (rats): significant and dose-dependent reductions
- effect on [3H]inositol labeling of PIs (phosphatidylinositide synthesis) (phosphatidylinositides): significantly increased
- enhancement of α-methylserotonin effects on IP by prelabeling with antidepressant (5HT2 receptor [4]; frontal cortex tissues): concentration-dependently enhanced
- enhancement of α-Me5HT-induced IP accumulation by prelabeling in presence of antidepressant (5HT2 receptor [4]; hippocampus, frontal cortex, striatum): significantly enhanced
- enhancement of α-methylserotonin effects on IP by prelabeling with antidepressant (5HT2 receptor [4]; striatal tissues): not significantly enhanced
- inhibition by 5HT2 receptor blockade (LY53857) of the drug's PI labeling / phosphatidylinositol resynthesis effect (5HT2 receptor [2]; hippocampus, similar in frontal cortex): only partially, though significantly, reduced
- effect on accumulation of IPs (inositol phosphates): significantly and dose-dependently stimulated

Compound: CNCCCC12CCC(c3ccccc31)c1ccccc12 [maprotiline]
- effect on [3H]CDP-diacylglycerol accumulation (CDP-diacylglycerol): significantly and dose-dependently enhanced
- effect on immobility times in forced swim test (rats): significant and dose-dependent reductions
- effect on [3H]inositol labeling of PIs (phosphatidylinositide synthesis) (phosphatidylinositides): significantly increased
- effect on accumulation of IPs (inositol phosphates): significantly and dose-dependently stimulated

Compound: O=C1CN=C(c2ccccc2)c2cc([N+](=O)[O-])ccc2N1 [nitrazepam]
- effect on CDP-diacylglycerol accumulation (CDP-diacylglycerol): No significant effects or concentration-related effects

Compound: CN1Cc2c(N)cccc2C(c2ccccc2)C1 (stereo not drawn) [nomifensine]
- effect on [3H]CDP-diacylglycerol accumulation (CDP-diacylglycerol): significantly and dose-dependently enhanced

Compound: C#CCN(C)Cc1ccccc1 [pargyline]
- effect on CDP-diacylglycerol accumulation (CDP-diacylglycerol): No significant effects or concentration-related effects

Compound: Fc1ccc([C@@H]2CCNC[C@H]2COc2ccc3c(c2)OCO3)cc1 [paroxetine]
- sensitivity of drug effects to inhibition by U73122 [3]: more sensitive

Compound: NNCCc1ccccc1 [phenelzine]
- CDP-DG/IP ratio ([1]; antidepressant agents, increasing drug concentrations, hippocampus, similar in cortical tissues): increased significantly
- concentration at which CDP-DG effects achieved significance (CDP-diacylglycerol; frontal cortex slices, Dunnett's): 1 µM
- effect on CDP-DG accumulation (CDP-diacylglycerol; frontal cortex slices): robust effects
- effect on [3H]inositol phospholipid synthesis (PI resynthesis) (phosphatidylinositides; rat cortical slices, MAOIs): significant and concentration-dependent increases

Compound: O=C1NC(=O)C(c2ccccc2)(c2ccccc2)N1 [phenytoin]
- effect on CDP-diacylglycerol accumulation (CDP-diacylglycerol): No significant effects or concentration-related effects

Compound: CCN(CC)CCCC(C)Nc1c2ccc(Cl)cc2nc2ccc(OC)cc12 (stereo not drawn) [quinacrine]
- effect on CDP-diacylglycerol accumulation (CDP-diacylglycerol): No significant effects or concentration-related effects

Compound: C#CCN(C)[C@H](C)Cc1ccccc1 [selegiline]
- effect on CDP-diacylglycerol accumulation (CDP-diacylglycerol): No significant effects or concentration-related effects

Compound: CCN1CCCC1CNC(=O)c1cc(S(N)(=O)=O)ccc1OC (stereo not drawn) [sulpiride]
- effect on CDP-diacylglycerol accumulation (CDP-diacylglycerol): No significant effects or concentration-related effects

Compound: neomycin
- effect of neomycin on SKF38393-induced decrease of immobility times (rats; iv 2 h prior to testing): blocked
- effect of neomycin pretreatment on immobility-reducing effects of antidepressant drugs (rats; iv 2 h prior to testing): completely reversed
- effect of neomycin pretreatment on immobility-reducing effects of antidepressant drugs (rats; iv 2 h prior to testing, listed as Neomycin): abolished
- effect of neomycin by itself on basal immobility times (rats; iv tail vein 2 h prior to testing): did not significantly alter
